# Assays:
# WT clinical isolates = assay: MIC broth microdilution, WT; assay type: cell-based; conditions: read-out: MIC WT, clinical isolates, IMM Univ. Zurich; wild type
# Procedure, shortened: (§1)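 MICs obtained by broth microdilution following CLSI M07-A10, tested against clinical isolates from the Institute of Medical Microbiology, Univ. Zurich; values in μg/ml.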
# [1] = system: clinical isolates carrying AAC(3)-IV; assay: MIC broth microdilution, AAC(3)-IV; assay type: cell-based; conditions: clinical isolates, IMM Univ. Zurich; AAC(3)-IV; read-out: MIC AAC(3)-IV
# Procedure, shortened: as §1
# [2] = system: clinical isolates carrying APH(3′)-I; assay: MIC broth microdilution, APH(3′)-I; assay type: cell-based; conditions: IMM Univ. Zurich
# [3] = system: clinical isolates carrying APH(3′)-III; assay: MIC broth microdilution, APH(3′)-III; assay type: cell-based; conditions: IMM Univ. Zurich
# [4] = system: clinical isolates carrying APH(3′)-VI; assay: MIC broth microdilution, APH(3′)-VI; assay type: cell-based; conditions: IMM Univ. Zurich
# isolates carrying apmA = assay: MIC broth microdilution, apmA; assay type: cell-based; conditions: apmA resistance gene
# Procedure, shortened: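 MICs (μg/ml) were determined by CLSI M07-A10 broth microdilution against apmA-carrying clinical isolates from the Institute of Medical Microbiology, University of Zurich.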
# bacterial ribosomes = assay: in-vitro translation assay, bacterial ribosomes; assay type: biochemical
# Procedure, shortened: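 Inhibitory potency was determined as IC50 in in-vitro translation systems based on bacterial ribosomes, human chimeric (mitochondrial-type) ribosomes or rabbit reticulocyte (cytosolic) ribosomes.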
# [5] = system: human mitochondrial ribosomes; assay: in-vitro translation assay, human mitochondrial (human chimeric) ribosomes; assay type: biochemical
# Procedure, shortened: (§2)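 Each ribosome preparation (bacterial, human chimeric as the mitochondrial model, rabbit reticulocyte as the cytosolic model) drives in-vitro translation with the test compound present. Inhibition of translation gives the IC50.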
# [6] = system: human cytosolic ribosomes; assay: in-vitro translation assay, human cytosolic ribosomes; assay type: biochemical
# Procedure, shortened: as §2
# [7] = system: AG212, Escherichia coli ATCC25922; assay: MIC reference strain AG212; assay type: cell-based; conditions: Escherichia coli; reference strain ATCC25922; read-out: MIC AG212 E. coli
# Procedure, shortened: (§3)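 MICs were determined by broth microdilution following CLSI guidelines for aerobically growing bacteria.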
# [8] = system: AG215, Klebsiella pneumonia; assay: MIC reference strain AG215; assay type: cell-based; conditions: Klebsiella pneumoniae, reference strain; read-out: MIC AG215 K. pneumonia
# Procedure, shortened: as §3
# [9] = system: AG290, Enterobacter cloacae; assay: MIC reference strain AG290; assay type: cell-based; conditions: Enterobacter cloacae; reference strain; read-out: MIC AG290 E. cloacae
# Procedure, shortened: as §3
# [10] = system: AG220, Pseudomonas aeruginosa ATCC27853; assay: MIC reference strain AG220; assay type: cell-based; conditions: Pseudomonas aeruginosa, ATCC27853, reference strain ATCC27853; read-out: MIC AG220 P. aeruginosa
# Procedure, shortened: as §3
# [11] = system: AG225, Acinetobacter baumannii pittii; assay: MIC reference strain AG225; assay type: cell-based; conditions: Acinetobacter baumannii, reference strain; read-out: MIC AG225 A. baumannii
# Procedure, shortened: as §3
# ATCC19977 M. abcessus = assay: MIC reference strain ATCC19977; assay type: cell-based; conditions: reference strain; read-out: MIC ATCC19977 M. abcessus
# Procedure, shortened: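 Values are minimal inhibitory concentrations, obtained by serial dilution of compound in broth according to CLSI guidance for aerobes.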
# N. gonorrhoeae = assay: Disk diffusion N. gonorrhoeae; assay type: cell-based
# AG001 E. coli WT = assay: Antibacterial activity, clinical isolate AG001; assay type: cell-based; set-up: unit not given here
# Procedure, shortened: (§4)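 MIC values were determined by broth microdilution following the CLSI standard method for dilution susceptibility testing of aerobically growing bacteria.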
# AG055 E. coli WT = assay: Antibacterial activity, clinical isolate AG055; assay type: cell-based; set-up: unit not given here
# Procedure, shortened: as §4
# AG003 E. coli AAC(3)-II = assay: Antibacterial activity, clinical isolate AG003; assay type: cell-based
# Procedure, shortened: as §4
# AG173 E. coli AAC(3)-IV = assay: Antibacterial activity, clinical isolate AG173; assay type: cell-based
# Procedure, shortened: as §4
# AG163 E. coli APH(3′)-I = assay: Antibacterial activity, clinical isolate AG163; assay type: cell-based
# Procedure, shortened: as §4
# AG038 MRSA = assay: Antibacterial activity, clinical isolate AG038; assay type: cell-based; set-up: unit not given here
# Procedure, shortened: as §4
# [12] = system: AG039 MRSA AAC(6′)-I ANT(4′)-I; assay: Antibacterial activity, clinical isolate AG039; assay type: cell-based
# Procedure, shortened: as §4
# [13] = system: AG042 MRSA AAC(6′)-I ANT(4′)-I APH(2′); assay: Antibacterial activity, clinical isolate AG042; assay type: cell-based; set-up: unit not given here
# Procedure, shortened: as §4
# AG031 P. aer. APH(3′)-II = assay: Antibacterial activity, clinical isolate AG031; assay type: cell-based; set-up: unit not given here
# Procedure, shortened: as §4
# AG032 P. aer. APH(3′)-II = assay: Antibacterial activity, clinical isolate AG032; assay type: cell-based; set-up: unit not given here
# Procedure, shortened: as §4
# [14] = system: AG033 P. aer. APH(3′)-II AAC(6′)-I; assay: Antibacterial activity, clinical isolate AG033; assay type: cell-based; set-up: unit not given here
# Procedure, shortened: as §4
# [15] = system: Engineered E. coli pH430 WT; assay: Activity, engineered E. coli pH430 WT; assay type: cell-based; conditions: wild type
# Procedure, shortened: (§5)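 Read-out is the minimal inhibitory concentration, obtained in broth microdilution run according to CLSI guidelines (M07-A10).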
# [16] = system: Engineered E. coli AG103 armA; assay: Activity against G1405-methylated 16S-rRNA, E. coli AG103 armA; assay type: cell-based
# Procedure, shortened: as §5
# [17] = system: Engineered E. coli pH424 armA; assay: Activity against G1405-methylated 16S-rRNA, E. coli pH424 armA; assay type: cell-based
# Procedure, shortened: as §5
# [18] = system: Engineered E. coli pH425 rmtB; assay: Activity against G1405-methylated 16S-rRNA, E. coli pH425 rmtB; assay type: cell-based
# Procedure, shortened: as §5
# [19] = system: Engineered E. coli pH426 rmtC; assay: Activity against G1405-methylated 16S-rRNA, E. coli pH426 rmtC; assay type: cell-based
# Procedure, shortened: as §5
# [20] = system: Engineered E. coli pH427 rmtF; assay: Activity against G1405-methylated 16S-rRNA, E. coli pH427 rmtF; assay type: cell-based
# Procedure, shortened: as §5
# [21] = system: E. coli AG153 AAC(3)-II APH(3′)-II rmtB; assay: Activity against G1405-methylated 16S-rRNA, clinical isolate AG153; assay type: cell-based
# Procedure, shortened: as §5
# [22] = system: K. pneum. AG269 AAC(3)-II AAC(6′)-I rmtB; assay: Activity against G1405-methylated 16S-rRNA, clinical isolate AG269; assay type: cell-based
# Procedure, shortened: as §5
# [23] = system: Enterob. AG302 AAC(3)-II AAC(6′)-I rmtC; assay: Activity against G1405-methylated 16S-rRNA, clinical isolate AG302; assay type: cell-based
# Procedure, shortened: as §5
# [24] = system: A baum. AG227 APH(3′)-I armA; assay: Activity against G1405-methylated 16S-rRNA, clinical isolate AG227; assay type: cell-based
# Procedure, shortened: as §5
compound,measurement,setting,value
CNC1C(O[C@H]2OC(CO)[C@@H](N)C(O)C2O)O[C@H]2CC(N)[C@@H](O[C@@H]3C(N)C[C@@H](N)C(O)C3O)OC2C1O (stereo partly shown) [apramycin],MIC,WT clinical isolates,2 to 4 µg/mL
same,MIC,[1],> 128 µg/mL
same,MIC,[2],1 to 2 µg/mL
same,MIC,[3],1 µg/mL
same,MIC,[4],4 µg/mL
same,MIC,isolates carrying apmA,64 µg/mL
same,IC50,bacterial ribosomes,0.08 µM
same,IC50,[5],68 µM
same,IC50,[6],71 µM
same,MIC,[7],4 µg/mL
same,MIC,[8],2 µg/mL
same,MIC,[9],4 µg/mL
same,MIC,[10],4 µg/mL
same,MIC,[11],4 µg/mL
same,MIC,ATCC19977 M. abcessus,2 µg/mL
same,Disk diffusion 25 nmol N. gonorrhoeae,N. gonorrhoeae,<8 mm
same,Antibacterial activity AG001 E. coli WT,AG001 E. coli WT,8-16
same,Antibacterial activity AG055 E. coli WT,AG055 E. coli WT,8
same,Antibacterial activity AG003 E. coli AAC(3)-II,AG003 E. coli AAC(3)-II,8
same,Antibacterial activity AG173 E. coli AAC(3)-IV,AG173 E. coli AAC(3)-IV,≥128
same,Antibacterial activity AG163 E. coli APH(3′)-I,AG163 E. coli APH(3′)-I,4
same,Antibacterial activity AG038 MRSA,AG038 MRSA,4-8
same,Antibacterial activity AG039 MRSA AAC(6′)-I ANT(4′)-I,[12],8
same,Antibacterial activity AG042 MRSA AAC(6′)-I ANT(4′)-I APH(2′),[13],8
same,Antibacterial activity AG031 P. aer. APH(3′)-II,AG031 P. aer. APH(3′)-II,8-16
same,Antibacterial activity AG032 P. aer. APH(3′)-II,AG032 P. aer. APH(3′)-II,8
same,Antibacterial activity AG033 P. aer. APH(3′)-II AAC(6′)-I,[14],16-32
same,Activity E. coli pH430 WT,[15],2-4
same,Activity E. coli AG103 armA,[16],1-2
same,Activity E. coli pH424 armA,[17],2-4
same,Activity E. coli pH425 rmtB,[18],4
same,Activity E. coli pH426 rmtC,[19],4
same,Activity E. coli pH427 rmtF,[20],4
same,Activity E. coli AG153 AAC(3)-II APH(3′)-II rmtB,[21],8
same,Activity K. pneum. AG269 AAC(3)-II AAC(6′)-I rmtB,[22],2
same,Activity Enterob. AG302 AAC(3)-II AAC(6′)-I rmtC,[23],4
same,Activity A baum. AG227 APH(3′)-I armA,[24],2
